The values that follow come from ChEMBL document CHEMBL5303573, “Mapping human microbiome drug metabolism by gut bacteria and their genes” (Nature, 2019).

The nature of data set [1]: The drug is tested on Bacteroides dorei strain: DSM17855 for biotransformation. The drug concentrations were measured before and after a 12-h incubation by liquid-chromatography-coupled mass spectrometry (LC–MS). To be noted: phocaeicola dorei, 2 µM.
The conditions of data set [2]: bacteroides eggerthii, 12 h, 2 µM.
Description: The drug is tested on Bacteroides eggerthii strain: DSM20697 for biotransformation. The drug concentrations were measured before and after a 12-h incubation by liquid-chromatography-coupled mass spectrometry (LC–MS)
The nature of data set [3]: The drug is tested on Enterococcus faecalis strain: V583 for biotransformation. The drug concentrations were measured before and after a 12-h incubation by liquid-chromatography-coupled mass spectrometry (LC–MS). To be noted: 2 µM.
Data set [4] in a line: The drug is tested on Subdoligranulum variabile strain: DSM15176 for biotransformation. The drug concentrations were measured before and after a 12-h incubation by liquid-chromatography-coupled mass spectrometry (LC–MS). To be noted: 2 µM.
A short description of data set [5]: The drug is tested on Ruminococcus torques strain: ATCC27756 for biotransformation. The drug concentrations were measured before and after a 12-h incubation by liquid-chromatography-coupled mass spectrometry (LC–MS). Conditions: 2 µM. Also on record: dose 2 uM, timepoint 0 vs 12 hours. The data set is classed as ADME.
The conditions of data set [6]: bifidobacterium adolescentis, 12 h, 2 µM.
Description: The drug is tested on Bifidobacterium adolescentis strain: ATCC 15703 for biotransformation. The drug concentrations were measured before and after a 12-h incubation by liquid-chromatography-coupled mass spectrometry (LC–MS)
Data set [7] is described as follows: The drug is tested on Providencia rettgeri strain: DSM1131 for biotransformation. The drug concentrations were measured before and after a 12-h incubation by liquid-chromatography-coupled mass spectrometry (LC–MS). To be noted: 2 µM. Type of data set: ADME. The arrangement: dose 2 uM, timepoint 0 vs 12 hours.
Data set [8] in a line: The drug is tested on Clostridium asparagiforme strain: DSM15981 for biotransformation. The drug concentrations were measured before and after a 12-h incubation by liquid-chromatography-coupled mass spectrometry (LC–MS). Also on record: dose 2 uM, timepoint 0 vs 12 hours. Type of data set: ADME. To be noted: enterocloster asparagiformis, 2 µM.
A short description of data set [9]: The drug is tested on Dorea formicigenerans strain: ATCC27755 for biotransformation. The drug concentrations were measured before and after a 12-h incubation by liquid-chromatography-coupled mass spectrometry (LC–MS). Conditions: 2 µM.
The nature of data set [10]: The drug is tested on Clostridium scindens strain: ATCC35704 for biotransformation. The drug concentrations were measured before and after a 12-h incubation by liquid-chromatography-coupled mass spectrometry (LC–MS). To be noted: 2 µM.
Data set [11] is described as follows: The drug is tested on Bifidobacterium ruminantium strain: fecal isolate for biotransformation. The drug concentrations were measured before and after a 12-h incubation by liquid-chromatography-coupled mass spectrometry (LC–MS). To be noted: 2 µM.
The nature of data set [12]: The drug is tested on Anaerotruncus colihominis strain: DSM17241 for biotransformation. The drug concentrations were measured before and after a 12-h incubation by liquid-chromatography-coupled mass spectrometry (LC–MS). Conditions: 2 µM.
Data set [13] is described as follows: The drug is tested on Ruminococcus gnavus strain: ATCC29149 for biotransformation. The drug concentrations were measured before and after a 12-h incubation by liquid-chromatography-coupled mass spectrometry (LC–MS). Conditions: mediterraneibacter gnavus, 2 µM.
Data set [14] in a line: The drug is tested on Eggerthella lenta strain: ATCC25559 for biotransformation. The drug concentrations were measured before and after a 12-h incubation by liquid-chromatography-coupled mass spectrometry (LC–MS). To be noted: 2 µM.
Data set [15] in a line: The drug is tested on Bacteroides pectinophilus strain: ATCC43243 for biotransformation. The drug concentrations were measured before and after a 12-h incubation by liquid-chromatography-coupled mass spectrometry (LC–MS). Conditions: 2 µM.
Data set [16] is described as follows: The drug is tested on Enterobacter cancerogenus strain: ATCC35316 for biotransformation. The drug concentrations were measured before and after a 12-h incubation by liquid-chromatography-coupled mass spectrometry (LC–MS). Conditions: 2 µM.
A short description of data set [17]: The drug is tested on Escherichia coli strain: BW25113 for biotransformation. The drug concentrations were measured before and after a 12-h incubation by liquid-chromatography-coupled mass spectrometry (LC–MS). To be noted: 2 µM.
Data set [18] in a line: The drug is tested on Bacteroides uniformis strain: ATCC8492 for biotransformation. The drug concentrations were measured before and after a 12-h incubation by liquid-chromatography-coupled mass spectrometry (LC–MS). Conditions: 2 µM.
The nature of data set [19]: The drug is tested on Bacteroides ovatus strain: ATCC8483 for biotransformation. The drug concentrations were measured before and after a 12-h incubation by liquid-chromatography-coupled mass spectrometry (LC–MS). To be noted: 2 µM.
The nature of data set [20]: The drug is tested on Clostridium sp. strain: fecal isolate for biotransformation. The drug concentrations were measured before and after a 12-h incubation by liquid-chromatography-coupled mass spectrometry (LC–MS). To be noted: 2 µM.

`CCCC(=O)Nc1ccc(OCC(O)CNC(C)C)c(C(C)=O)c1` (stereo not drawn) [ACEBUTOLOL]: the “Bacterial Biotransformation” value in [1], in data set [2], in data set [3], in data set [4], in data set [5] and in [6] was “Compound NOT metabolized” throughout. Further, the “Bacterial Biotransformation” value in [7], in data set [8], in [9], in data set [10], in data set [11] and in [12] was “Compound NOT metabolized” in each case. Besides, the “Bacterial Biotransformation” value in [13], in [14], in data set [15], in data set [16], in data set [17] and in [18] was “Compound NOT metabolized” each time. Further, the “Bacterial Biotransformation” value in data set [19] is given as “Compound NOT metabolized”.
As for `CC(=O)OCC(=O)NCCCOc1cccc(CN2CCCCC2)c1` [ROXATIDINE ACETATE], the “Bacterial Biotransformation” value in data set [1], in data set [2], in [3], in data set [4], in data set [5] and in [6] was “Compound metabolized” in each case. The “Bacterial Biotransformation” value in data set [7], in [8], in data set [9], in [10], in data set [11] and in [12] was “Compound metabolized” throughout. For the same compound, the “Bacterial Biotransformation” value in data set [13] is listed as “Compound NOT metabolized”; in data set [14], “Compound metabolized”; in data set [15], “Compound metabolized”; in [16] it was “Compound metabolized”; in data set [17], “Compound metabolized”; in [18] it was “Compound metabolized”. Moreover, in [19], the “Bacterial Biotransformation” value was “Compound metabolized”.
`CN(C)C(=O)Oc1cc(OC(=O)N(C)C)cc(C(O)CNC(C)(C)C)c1` (stereo not drawn) [BAMBUTEROL]: the “Bacterial Biotransformation” value in data set [20], in data set [1], in [2], in [3], in data set [4] and in data set [5] was “Compound NOT metabolized” in each case. The “Bacterial Biotransformation” value in [6], in [7], in data set [8], in data set [9], in [10] and in data set [12] was “Compound NOT metabolized” each time. For the same compound, the “Bacterial Biotransformation” value in data set [13], in data set [14], in [15], in data set [16], in [17] and in data set [18] was “Compound NOT metabolized” each time. Further, the “Bacterial Biotransformation” value in [19] was “Compound NOT metabolized”.
In the case of `CCCc1nc(C(C)(C)O)c(C(=O)OCc2oc(=O)oc2C)n1Cc1ccc(-c2ccccc2-c2nnn[nH]2)cc1` [OLMESARTAN MEDOXOMIL], the “Bacterial Biotransformation” value in data set [20] is on record as “Compound metabolized”; in [1] it was “Compound metabolized”; in data set [4], “Compound metabolized”; in data set [6], “Compound NOT metabolized”; in [8] it was “Compound metabolized”; in [9] it was “Compound metabolized”. Also, the “Bacterial Biotransformation” value in data set [10] is “Compound metabolized”; in data set [12] it was “Compound metabolized”; in data set [13] it was “Compound NOT metabolized”; in data set [14] it was “Compound metabolized”; in [15] it was “Compound metabolized”; in data set [16], “Compound metabolized”. Further, the “Bacterial Biotransformation” value in data set [17], in data set [18] and in [19] was “Compound metabolized” each time.
`CC#C[C@]1(O)CC[C@H]2[C@@H]3CCC4=CC(=O)CCC4=C3[C@@H](c3ccc(N(C)C)cc3)C[C@@]21C` [MIFEPRISTONE]: the “Bacterial Biotransformation” value in data set [20] is reported as “Compound metabolized”; in data set [1], “Compound metabolized”; in data set [3] it was “Compound metabolized”; in [4], “Compound NOT metabolized”; in data set [5], “Compound NOT metabolized”; in data set [6], “Compound NOT metabolized”. Further, the “Bacterial Biotransformation” value in data set [7], in data set [8], in data set [9], in data set [10], in data set [12] and in data set [13] was “Compound NOT metabolized” throughout. In addition, the “Bacterial Biotransformation” value in data set [14], in [15], in data set [16], in data set [17] and in [18] was “Compound NOT metabolized” throughout.
As for `CSc1ccc2c(c1)C(N1CCN(C)CC1)Cc1ccccc1S2.O=C(O)/C=C\C(=O)O` (stereo not drawn), the “Bacterial Biotransformation” value in [20], in data set [1], in [2], in [3], in data set [4] and in data set [5] was “Compound NOT metabolized” throughout. Further, the “Bacterial Biotransformation” value in [6] is given as “Compound NOT metabolized”; in [7], “Compound NOT metabolized”; in [8] it was “Compound NOT metabolized”; in [9], “Compound NOT metabolized”; in data set [10] it was “Compound metabolized”; in data set [11], “Compound NOT metabolized”. Moreover, the “Bacterial Biotransformation” value is on record as “Compound metabolized” in [12]; “Compound NOT metabolized” in [13]; “Compound NOT metabolized” in data set [14]; “Compound NOT metabolized” in data set [15]; “Compound NOT metabolized” in data set [16]; “Compound metabolized” in data set [18]. Moreover, the “Bacterial Biotransformation” value in [19] was “Compound NOT metabolized”.
